# Measurements from patent US12453725B2, “Treatment of inflammatory disease” (Celleron Therapeutics Limited, priority 2019, dated 2025).
# Assays:
# HDAC Class 1l = test: HDAC Class II inhibition; type: biochemical; settings: stated as no activity; read-out: activity against HDAC Class 1l
# [1] = system: SW620 human colon adenocarcinoma cells; test: MTT assay, SW620 cells; type: cell-based
# Procedure: Three human colorectal adenocarcinoma cell lines: SW620 (ATCC® CCL-227™), HCT-15 (ATCC® CCL-225™), LoVo (ATCC® CCL-229™), and one mouse colon carcinoma cell line: CT26 (ATCC® CRL-2638™) were obtained from ATCC. Human cell lines were cultured in DMEM (Lonza Group, Switzerland), while CT26 in RPMI (Biowest, France). The media were supplemented with 10% FBS and 1% penicillin-streptomycin (Lonza Group, Switzerland). Cells were cultured under standard conditions.
# In order to assess the cytotoxicity of CXD101, cells were seeded onto 96-well plates overnight and the next day were dosed with CXD101 and incubated for 72 h or 120 h. Next, 100 μl of Thiazolyl Blue Tetrazolium Bromide (MTT, Sigma-Aldrich, USA) was added into a well (final concentration […]) and incubated for 2 h at 37° C. After that medium was discarded and formazan crystals were dissolved in 100 μl DMSO (VWR International, USA) by shaking for 15 minutes. Absorbance was read by Omega FLUOstar plate reader (BMG Labtech Ltd, Germany) at the 584 nm wavelength. Data were analysed and IC50 doses calculated in GraphPad Prism (GraphPad Software, USA).
# histone H3 acetylation = test: Histone H3 acetylation, SW620 cells (western blot); type: cell-based, human; settings: SW620, 72 hours
# Procedure: (§1) Cell pellets were lysed in TNN buffer, for 30 minutes on ice and centrifuged for another 30 minutes at maximum speed at 4° C. Protein concentration was assessed by Bradford assay (Quick Start™ Bradford 1× Dye Reagent, Bio-Rad Laboratories, USA). After gel electrophoresis, proteins were transferred onto the PVDF membrane by means of Trans-Blot® Turbo™ Transfer System (Bio-Rad Laboratories, USA) and blocked by 1 h incubation in 5% skim milk (Merck Group, Germany) in PBST at RT. To confirm acetylation induced by CXD101, membranes were incubated with anti-H3 (ab1791, abcam) antibody, anti-H3Ack9 (ab10812, abcam) in case of CT26 cells, and for SW620 with H3Ack14 antibody (#7627, Cell Signaling) overnight, at 4° C. Next, membranes were washed and treated with secondary antibody for 1 h at RT. Chemiluminescent signals were detected by LICOR C-Digit (LI-COR Biosciences, USA), and the data quantified using ImageJ software (National Institutes of Health, USA).
# SW620 cells = test: qPCR of single genes, SW620 cells; type: cell-based, human
# Procedure: (§2) Total RNA purified from DMSO- or CXD101 treated cells was transcribed into cDNA according to the manufacturer's instructions (iScript cDNA Synthesis Kit, Bio-Rad, USA). qPCR was conducted according to the manufacturer's protocol (SsoAdvanced Universal SYBR Green Supermix, Bio-Rad Laboratories, USA) on CFX Connect Real-Time System thermocycler (Bio-Rad Laboratories, USA).
# H3 acetylation = test: H3 acetylation, colon26 cells; type: cell-based, mouse; settings: colon26, dose-dependent
# Procedure: as §1
# colon26 cells [2] = test: RNAseq, colon26 cells in vitro; type: cell-based, mouse
# Source text: The RNAseq data was aligned to the reference M. musculus genome (mm10) with STAR aligner and analysed for differential expression. […] We further evaluated transcripts identified in the colon26 RNAseq at the single gene level, focusing on murine genes which are homologues of the immune-related genes identified in human SW620 cells, which included genes in the murine MHC H2 complex. A number of H2 genes including class I and class II genes were induced including H2-D1, DMA, DMB1 and EB1 (FIG. 6).
# SW620 cells were seeded into 6-well plates and left to adhere overnight. Cells were treated with 1 μM, 10 μM of CXD101 for 48 h. CT26 cells were seeded onto 100 mm plates and treated with 2.7 μM and 10 μM CXD101 for 72 h. After treatment cells were harvested and total RNA extracted by means of Promega ReliaPrep™ RNA Cell Miniprep System (Promega, USA). RNA was dissolved in RNAse free water and stored in −80° C. for future analysis. RNA concentration was measured by NanoDrop 2000 (Thermo Fisher Scientific, USA). Samples were qualified for library preparation if […]. Library preparation with poly (A) enrichment was performed by BGI.
# colon26 cells [3] = test: qPCR of single genes, colon26 cells; type: cell-based, mouse
# Procedure: as §2
# colon26 tumours = test: Syngeneic colon26 colon carcinoma model; type: in vivo
# Procedure: To assess gene expression in tumours that were growing in vivo, we evaluated the effect of CXD101 in the syngeneic colon26 colon carcinoma model in tumours grown subcutaneously in Balb/c mice, with CXD101 given orally for two 5-day consecutive periods and performed RNAseq on RNA purified from the tumours. Formalin-fixed paraffin-embedded samples were also prepared to assess by immunohistochemistry (IHC) the tumour micro-environment.
# (§3) Syngeneic colorectal tumour xenograft Colon 26 model was induced in female BALB/c mice and MC38 model in C57BL/6 mice by subcutaneous injection of cell suspension into the flank following the anaesthetization by inhalation of isoflurane. Upon solid tumour formation Colon 26 animals were divided into six experimental groups treated respectively with: vehicle control (control), CXD101, anti-PD-1 mAb (BioXCell, USA), anti-CTLA4 mAb (BioXCell, USA), combination of CXD101 with anti-PD-1 antibody and combination of CXD101 with anti-CTLA4 antibody. MC38 animals were divided into four groups, without CTLA-4-based treatment. During the course of experiment animals were monitored twice daily and weighed three times a week. Mice in bad overall condition and/or tumour volume exceeding 1000 mm3 were euthanized. Tumour volume was calculated by two-dimensional measurement according to the formula: Tumour volume=(a×b^2)×0.5 in which a—represents the largest and, b—the perpendicular tumour diameter. The study was terminated on 36th day (Colon 26) or 48th day (MC38). All Colon 26 animal handling has been executed by Charles River Laboratories (Germany) personnel with compliance to all local and international laws and regulations. Experiments involving MC38 tumour model have been executed by Crown Bioscience San Diego (USA). CXD101 Clinical Trial in Combination with Nivolumab (CTL-101-023)
# MC38 tumours = test: Syngeneic MC38 tumour model; design: species or system C57BL/6 mice; settings: mouse, in vivo
# Source text: as §3
# [4] = colon26 in vitro, log 2 FC >1, FDR 1%
# [5] = out of 1142 differentially expressed genes
compound,measurement,setting,value
"Cc1nn(C)cc1CN1CCC(c2ccc(C(=O)Nc3ccccc3N)cc2)CC1 [CXD101, N-(2-aminophenyl)-4-(1-[(1,3-dimethyl-1H-pyrazol-4-yl)methyl]piperidin-4-yl)benzamide]",IC50,HDAC Class 1l,≥ 2500 nM
same,proliferation of human colon cancer cells,[1],blocks proliferation
same,acetylation on histone H3 lysine,histone H3 acetylation,increased level of acetylation
same,"expression of HLA-B, HLA-F, HLA-DPA1, HLA-DQB1, CTLA4, CDKN1A, TIMP3",SW620 cells,increases expression
same,"expression of PHGDH, BCL2L15",SW620 cells,decreases
same,expression of REPIN1,SW620 cells,no effect
same,H3 acetylation in cells,H3 acetylation,increases the H3 acetylation
same,number of DEGs in vitro,colon26 cells [2]; colon26 cells,2502
same,genes down-regulated,colon26 cells [2]; [4],611
same,genes up-regulated,colon26 cells [2]; [4],1891
same,"immune-related DEGs, Immunome database",colon26 cells [2]; [5],15%
same,"immune-related DEGs, Import database",colon26 cells [2]; [5],34%
same,"immune-related DEGs, immunogenicity database",colon26 cells [2]; [5],36%
same,"expression of Ctla4, H2-D1, Tnfsrf8",colon26 cells [3],no effects
same,"expression of H2-DMb1, H2-Eb1, H2-Dma, Ereg, Timp3, Ccl9, Cc20, II33, Rab3b",colon26 cells [3],increased expression
same,expression of H2-T3,colon26 cells [3],decreased
same,growth of colon26 tumours,colon26 tumours; mono-therapy vs combined treatment study,inhibitory effect
same,body weight,"colon26 tumours; mono-therapy, 15 and 50 mg/kg",minimal effect
same,tumour growth,"colon26 tumours; mono-therapy, oral, two 5-day periods, 15 and 50 mg/kg, dose-dependent",significant inhibition of tumour growth
same,MC38 tumour response,MC38 tumours,marginal response
